# From ChEMBL document CHEMBL4130620, “Disconnecting the Estrogen Receptor Binding Properties and Antimicrobial Properties of Parabens through 3,5-Substitution” (ACS Med Chem Lett, 2018)
# Experiments:
# Staphylococcus aureus = assay: microbe, parasite or virus in culture; settings: 155554A, 16 h
# Description: Antibacterial activity against Staphylococcus aureus 155554A incubated for 16 hrs by microdilution assay
# [1] = Solubility of the compound at >512 ug/ml; format: physicochemical
# [2] = molecular target: T1, Estrogen receptor alpha (ERalpha) (Homo sapiens, UniProt P03372); assay: Safety index, ratio of IC50 for test compound to IC50 for paraben for displacement of Fluor.ES2 Green from human ERalpha by TR-FRET competitive binding assay; settings: probe Fluor.ES2 Green, read-out: Ratio IC50
# T1 sequence (P03372 whole entry): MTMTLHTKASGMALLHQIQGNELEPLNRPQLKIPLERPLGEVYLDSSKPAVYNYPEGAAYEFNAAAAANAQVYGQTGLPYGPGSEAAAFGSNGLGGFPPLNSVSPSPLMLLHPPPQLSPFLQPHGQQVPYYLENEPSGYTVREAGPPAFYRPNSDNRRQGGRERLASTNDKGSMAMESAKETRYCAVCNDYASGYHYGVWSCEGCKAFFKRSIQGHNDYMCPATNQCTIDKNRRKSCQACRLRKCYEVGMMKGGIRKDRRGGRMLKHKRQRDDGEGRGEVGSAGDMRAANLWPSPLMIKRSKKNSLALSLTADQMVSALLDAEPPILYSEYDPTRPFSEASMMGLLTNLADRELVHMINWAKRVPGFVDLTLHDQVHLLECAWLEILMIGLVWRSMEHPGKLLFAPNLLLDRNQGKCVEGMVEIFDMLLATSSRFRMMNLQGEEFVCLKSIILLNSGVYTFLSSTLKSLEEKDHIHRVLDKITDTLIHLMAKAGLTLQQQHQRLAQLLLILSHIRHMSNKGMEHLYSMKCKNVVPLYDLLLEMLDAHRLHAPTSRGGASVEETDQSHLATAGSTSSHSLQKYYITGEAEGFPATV
# MCF7 [3] = format: ADME, cell-based; settings: human, mcf7, 24 h
# Estrogen receptor = molecular target: T2, Estrogen receptor (Homo sapiens, UniProt P03372)
# T2 sequence (P03372 whole entry): T1 sequence (P03372 whole entry)
# Description: Displacement of Fluor.ES2 Green from human ERalpha by TR-FRET competitive binding assay
# MCF7 [4] = format: toxicity, cell-based; settings: human
# MCF7 [5] = format: toxicity, cell-based; settings: human; remark: listed apart in the source
# [6] = molecular target: T1, Estrogen receptor alpha (ERalpha); assay: Displacement of Fluor.ES2 Green from human ERalpha at 100000 nM by TR-FRET competitive binding assay; settings: probe Fluor.ES2 Green
SMILES,MIC (Staphylococcus aureus) [µM],solubility [1],selectivity ratio [2],Activity (MCF7 [3]),IC50 (Estrogen receptor) [µM],Activity (MCF7 [4]),Activity (MCF7 [5]),inhibition at 100 µM [6] [%]
CC1(C)S[C@@H]2[C@H](NC(=O)Cc3ccccc3)C(=O)N2[C@H]1C(=O)O [PENICILLIN G],0.749,–,–,–,–,–,–,–
CCCCOC(=O)c1cc(C)c(O)c(C)c1,> 1040,Insoluble,20 to 40,Non-Toxic,32.5,–,–,–
CCCCOC(=O)c1cc(I)c(O)c(I)c1,36,–,20 to 40,Non-Toxic,34.6,Non-Toxic,Non-Toxic,–
CCCCOC(=O)c1cc([N+](=O)[O-])c(O)c([N+](=O)[O-])c1,1810,–,20 to 40,Non-Toxic,> 200,–,–,20
CCCCOC(=O)c1ccc(O)cc1 [BUTYLPARABEN],1320,–,–,Toxic,–,–,–,–
CCCCCCCCOC(=O)c1cc(O)c(O)c(O)c1 [OCTYL_GALLATE],210,–,20 to 40,Non-Toxic,8.74,–,–,–
CCCCOC(=O)c1c(F)c(F)c(O)c(F)c1F,483,–,20 to 40,Non-Toxic,29.4,–,–,–
CCCCOC(=O)c1cc(OC)c(O)c(OC)c1,924,Insoluble,20 to 40,Non-Toxic,> 200,–,–,20
CCCCOC(=O)c1cc(Br)c(O)c(Br)c1,91,–,20 to 40,Non-Toxic,39.4,Non-Toxic,Non-Toxic,–
CCCCOC(=O)c1cc(C(C)(C)C)c(O)c(C(C)(C)C)c1,834,Insoluble,20 to 40,Non-Toxic,> 200,–,–,20
CCCCCCCCOC(=O)c1cc([N+](=O)[O-])c(O)c([N+](=O)[O-])c1,47,–,20 to 40,Non-Toxic,60.4,Non-Toxic,Non-Toxic,–
CCCCOC(=O)c1cc(Cl)c(O)c(Cl)c1,245,–,20 to 40,Non-Toxic,55.3,–,–,–
CCCCOC(=O)c1ccc(O)c(Br)c1,236,–,–,Non-Toxic,8.21,–,–,–
CCOC(=O)c1ccc(O)cc1 [ETHYLPARABEN],–,–,–,Toxic,–,–,–,–
CCCCCCCCOC(=O)c1cc(I)c(O)c(I)c1,31.8,–,20 to 40,Non-Toxic,13.2,Non-Toxic,Non-Toxic,–
CCCCOC(=O)c1cc(O)c(O)c(O)c1 [BUTYL GALLATE],2060,–,–,Non-Toxic,8.97,–,–,–
CCCCCCCCOC(=O)c1cc(C)c(O)c(C)c1,213,–,20 to 40,Non-Toxic,16.2,–,–,–
CCCCOC(=O)c1ccc(O)c(I)c1,199,–,–,Non-Toxic,7.98,–,–,–
